In data set [1] the test system is MEK (phosphorylation of MAP kinase (ERK) in murine colon 26 (C26) carcinoma cells). Briefly: Cellular inhibition of ERK phosphorylation, pERK ELISA format (C26ELSA). It is filed as cell-based. To be noted: Mus musculus, 1 h, one hour treatment. The text has this:
Otherwise, percent inhibitions at measured concentrations are reported.

Data set [2] shares this test system. To be noted: read-out: C26CPA1 IC50, one hour treatment. The procedure:
Since ERK1 and ERK2 represent the only known substrates for MEK1 and MEK2, the measurement of inhibition of ERK phosphorylation in cells provides direct read out of cellular MEK inhibition by the compounds of the invention. Detection of phosphorylation of ERK was carried out either by Western blot or ELISA format. […] Supernatants were then subjected to gel electrophoresis and hybridized to a primary antibody recognizing dually phosphorylated ERK1 and ERK2. To evaluate total MAPK levels, blots were subsequently ‘stripped’ and re-probed with a 1:1 mixture of polyclonal antibodies recognizing unphosphorylated ERK1 and ERK2. For pERK ELISA assay, pERK TiterZyme Enzyme immunometric Assay kits were acquired from Assay Designs, Inc (Ann Arbor, Mich.). Briefly, cells were harvested in lysis solution containing 50 mM β-glycerophosphate, 10 mM HEPES, pH7.4, 70 mM NaCl, 2 mM EDTA and 1% SDS and protein lysates were diluted 1:15 with supplied Assay buffer prior to the execution of the assay. The subsequent steps were carried out essentially as recommended by the manufacturer.

Structures can show the parent of a compound that is named as a salt. Where two headings read alike, the source gives them in different places.

As for `CCOC(=O)c1cn2ccnc2cc1Nc1ccc(I)cc1F` [Example 1, 7-(2-Fluoro-4-iodo-phenylamino)-imidazo[1,2-a]pyridine-6-carboxylic acid ethyl ester], the melting point (usually the temperature, or range, at which the solid turns liquid) was in the range of 132 to 134 °C. Regarding `NC(=O)c1cn2ccnc2cc1Nc1ccc(I)cc1F` [Example 3, 7-(2-Fluoro-4-iodo-phenylamino)-imidazo[1.2-a]pyridine-6-carboxylic acid amide], inhibition in data set [1] was half-maximal at 1.9 nM (IC50). With `O=C(NCCO)C1=CN2CCN=C2C=C1Nc1ccc(I)cc1F` [Example 4, 7-(2-Fluoro-4-iodo-phenylamino)-2,3-dihydro-imidazo[1.2-a]pyridine-6-carboxylic acid (2-hydroxy-ethyl)-amide; hydroiodide salt], the half-inhibitory concentration (IC50) – broadly, the concentration needed to halve the response being measured – in data set [2] is 177 nM. For the compound `CCOC(=O)c1cn2c(C)nnc2cc1Nc1ccc(I)cc1F` [Example 5, 7-(2-Fluoro-4-iodo-phenylamino)-3-methyl-[1,2,4]triazolo[4.3-a]pyridine-6-carboxylic acid ethyl ester], the melting point fell in the range of 201 to 204 °C. The same measure, in the same setting: the result for `Cc1nnc2cc(Nc3ccc(I)cc3F)c(C(N)=O)cn12` [Example 6, 7-(2-Fluoro-4-iodo-phenylamino)-3-methyl-[1,2,4]triazolo[4,3-a]pyridine-6-carboxylic acid amide] reads 300 to 310 °C (dec.).

The values above are taken from patent US20050049276A1, “Imidazopyridines and triazolopyridines” (WARNER-LAMBERT COMPANY, LLC, priority 2003, published 2005).
